Assay results published in patent US9234000B2, “Benzylamine derivatives as inhibitors of plasma kallikrein” (KalVista Pharmaceuticals Limited, priority 2011, dated 2016).
pIC50: −log10 of the molar value. ≈ marks a conversion by molar mass, not a printed value.

Assays:
[1] = Determination of thermodynamic solubility in phosphate buffer; format: physicochemical; conditions: ammonium phosphate buffer pH7.4, 290 mOsm, 37° C., nominal 1 mg/mL; for solubility at 1 h: pH 7.4, aqueous buffer, thermodynamic from solid, read-out: Solubility in PO4 buffer
Description: Determination of Thermodynamic Solubility in Phosphate Buffer
The thermodynamic solubility of compound was determined in Ammonium Phosphate Buffer (pH7.4, 290 mOsm). Compounds were made up at a nominal concentration of 1 mg/mL, vortexed then placed on a shaker for 1 h, 37° C. at approximately 950 rpm. Following incubation samples were transferred to eppendorf tubes and centrifuged at 15,000 g (r.c.f.) for 10 minutes at 37° C. The concentration of compound in the supernatant was determined by LC-MS/MS analysis using a calibration line prepared from a DMSO stock.

Human plasma kallikrein = Human plasma kallikrein (Homo sapiens (Human), UniProt P03952); experiment: Determination of the IC50 for plasma kallikrein; format: biochemical; conditions: 37° C., substrate H-DPro-Phe-Arg-AFC, read-out: IC50 (human PKal)
Outline: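 Residual activity (initial rate, absorbance at 410 nm) gave the IC50. Reactions at 37° C combined human plasma kallikrein, substrate H-DPro-Phe-Arg-AFC and a range of inhibitor concentrations.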

Human KLK1 = Human KLK1 (Homo sapiens (Human), UniProt P06870); experiment: Determination of the IC50 for KLK1; format: biochemical; conditions: Human KLK1, 37° C., substrate H-DVal-Leu-Arg-AFC; Table 13
Outline: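 hKLK1 + H-DVal-Leu-Arg-AFC, 37° C, varied cpd conc. Initial rate by A410 change → residual activity → IC50.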

Sequence of Human plasma kallikrein (P03952 391-638): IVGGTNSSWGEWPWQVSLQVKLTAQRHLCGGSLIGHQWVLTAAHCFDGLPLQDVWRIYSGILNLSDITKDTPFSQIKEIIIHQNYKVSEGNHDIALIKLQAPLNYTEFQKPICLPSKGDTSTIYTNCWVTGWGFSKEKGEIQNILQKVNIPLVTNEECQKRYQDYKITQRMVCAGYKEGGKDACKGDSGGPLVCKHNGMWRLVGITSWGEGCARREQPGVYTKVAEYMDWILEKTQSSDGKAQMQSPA
Sequence of Human plasma kallikrein (P03952 20-390 partner): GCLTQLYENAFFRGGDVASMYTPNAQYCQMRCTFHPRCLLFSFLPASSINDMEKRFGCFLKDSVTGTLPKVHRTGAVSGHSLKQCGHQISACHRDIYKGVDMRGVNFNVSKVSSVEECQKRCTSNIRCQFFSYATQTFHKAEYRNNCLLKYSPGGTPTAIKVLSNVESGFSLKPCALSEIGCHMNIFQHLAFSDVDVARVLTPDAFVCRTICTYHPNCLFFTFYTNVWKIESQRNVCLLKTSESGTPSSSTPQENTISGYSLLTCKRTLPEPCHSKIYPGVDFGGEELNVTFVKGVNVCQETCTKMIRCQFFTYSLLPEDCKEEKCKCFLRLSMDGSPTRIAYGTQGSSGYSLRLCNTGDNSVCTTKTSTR
Sequence of Human KLK1 (P06870 25-262): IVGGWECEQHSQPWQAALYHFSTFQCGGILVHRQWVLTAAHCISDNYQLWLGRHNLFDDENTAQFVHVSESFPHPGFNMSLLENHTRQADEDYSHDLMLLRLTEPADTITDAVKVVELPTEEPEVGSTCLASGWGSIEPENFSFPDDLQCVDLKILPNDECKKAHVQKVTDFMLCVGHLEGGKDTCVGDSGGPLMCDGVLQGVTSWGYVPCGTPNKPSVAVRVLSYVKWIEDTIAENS

Row | Compound | solubility at 1 h [1] [µg/mL] | pIC50 (Human plasma kallikrein) | pIC50 (Human KLK1) | solubility in PO4 buffer ([1]; 1 h) [µg/mL]
1 | CCOc1ccc(C[C@@H](NC(=O)c2ccccc2)C(=O)N[C@@H](Cc2ccccn2)C(=O)NCc2ccc(CN)cc2)cc1 [Example 140, N-[(R)-1-[(S)-1-(4-Aminomethyl-benzylcarbamoyl)-2-pyridin-2-yl-ethylcarbamoyl]-2-(4-ethoxy-phenyl)-ethyl]-benzamide] | 79.6 (≈ 137 µM) | 7.35 | < 5.00 | –
2 | CCOc1ccc(C[C@@H](NC(=O)c2ccccc2)C(=O)N[C@@H](Cc2ccc(Cl)c(Cl)c2)C(=O)NCc2ccc(CN)cc2)cc1 [Example 141, N-[(R)-1-[(S)-1-(4-Aminomethyl-benzylcarbamoyl)-2-(3,4-dichloro-phenyl)-ethylcarbamoyl]-2-(4-ethoxy-phenyl)-ethyl]-benzamide] | 0.15 (≈ 0.232 µM) | 7.26 | < 5.00 | –
3 | CCOc1ccc(C[C@@H](NC(=O)c2ccccc2)C(=O)N[C@@H](Cc2ccc(F)cc2)C(=O)NCc2ccc(CN)cc2)cc1 [Example 143, N-[(R)-1-[(S)-1-(4-Aminomethyl-benzylcarbamoyl)-2-(4-fluoro-phenyl)-ethylcarbamoyl]-2-(4-ethoxy-phenyl)-ethyl]-benzamide] | 2.86 (≈ 4.79 µM) | 7.08 | < 5.00 | –
4 | CCOc1ccc(C[C@@H](NC(=O)c2ccccc2)C(=O)N[C@@H](Cc2cccnc2)C(=O)NCc2ccc(CN)cc2)cc1 [Example 145, N-[(R)-1-[(S)-1-(4-Aminomethyl-benzylcarbamoyl)-2-pyridin-3-yl-ethylcarbamoyl]-2-(4-ethoxy-phenyl)-ethyl]-benzamide] | 68.9 (≈ 119 µM) | 7.60 | < 5.00 | –
5 | CCOc1ccc(C[C@@H](NC(=O)c2ccccc2)C(=O)N[C@@H](Cc2cccs2)C(=O)NCc2ccc(CN)cc2)cc1 [Example 150, N-[(R)-1-[(S)-1-(4-Aminomethyl-benzylcarbamoyl)-2-thiophen-2-yl-ethylcarbamoyl]-2-(4-ethoxy-phenyl)-ethyl]-benzamide] | 0.12 (≈ 0.205 µM) | 7.29 | < 5.00 | –
6 | CCOc1ccc(C[C@@H](NC(=O)c2ccccc2)C(=O)N[C@@H](Cc2ccsc2)C(=O)NCc2ccc(CN)cc2)cc1 [Example 151] | – | 8.05 | < 5.00 | 4.31 (≈ 7.37 µM)
7 | CCOc1ccc(C[C@@H](NC(=O)c2ccccc2)C(=O)N[C@@H](Cc2cscn2)C(=O)NCc2ccc(CN)cc2)cc1 [Example 152, N-[(R)-1-[(S)-1-(4-Aminomethyl-benzylcarbamoyl)-2-thiazol-4-yl-ethylcarbamoyl]-2-(4-ethoxy-phenyl)-ethyl]-benzamide] | 122 (≈ 209 µM) | 7.64 | < 5.00 | –
8 | CCOc1ccc(C[C@@H](NC(=O)c2ccccc2)C(=O)N[C@@H](Cc2csc3ccccc23)C(=O)NCc2ccc(CN)cc2)cc1 [Example 153, N-[(R)-1-[(S)-1-(4-Aminomethyl-benzylcarbamoyl)-2-benzo[b]thiophen-3-yl-ethylcarbamoyl]-2-(4-ethoxy-phenyl)-ethyl]-benzamide] | 0.19 (≈ 0.299 µM) | 8.00 | < 5.00 | –
9 | CCOc1ccc(C[C@@H](NC(=O)c2ccccc2)C(=O)N[C@@H](Cc2ccccc2)C(=O)NCc2ccc(CN)c(F)c2)cc1 [Example 154, N-[(R)-1-[(S)-1-(4-Aminomethyl-3-fluoro-benzylcarbamoyl)-2-phenyl-ethylcarbamoyl]-2-(4-ethoxy-phenyl)-ethyl]-benzamide] | 3.14 (≈ 5.26 µM) | 7.68 | < 5.00 | –
10 | CCOc1ccc(C[C@@H](NC(=O)c2ccccc2)C(=O)N[C@@H](Cc2ccccc2)C(=O)NCc2ccc(CN)c(Cl)c2)cc1 [Example 155, N-[(R)-1-[(S)-1-(4-Aminomethyl-3-chloro-benzylcarbamoyl)-2-phenyl-ethylcarbamoyl]-2-(4-ethoxy-phenyl)-ethyl]-benzamide] | 0.44 (≈ 0.718 µM) | 7.66 | < 5.00 | –
11 | CCOc1ccc(C[C@@H](NC(=O)c2ccc(OC)cc2)C(=O)N[C@@H](Cc2ccccn2)C(=O)NCc2ccc(CN)cc2)cc1 [Example 158, N-[(R)-1-[(S)-1-(4-Aminomethyl-benzylcarbamoyl)-2-pyridin-2-yl-ethylcarbamoyl]-2-(4-ethoxy-phenyl)-ethyl]-4-methoxy-benzamide] | 70.6 (≈ 116 µM) | 7.33 | < 5.00 | –
12 | CCOc1ccc(C[C@@H](NC(=O)c2ccccn2)C(=O)N[C@@H](Cc2ccccc2)C(=O)NCc2ccc(CN)c(Cl)c2)cc1 [Example 159, Pyridine-2-carboxylic acid [(R)-1-[(S)-1-(4-aminomethyl-3-chloro-benzylcarbamoyl)-2-phenyl-ethylcarbamoyl]-2-(4-ethoxy-phenyl)-ethyl]-amide] | 1.15 (≈ 1.87 µM) | 7.82 | < 5.00 | –
13 | CCOc1ccc(C[C@@H](NC(=O)c2ccc(OC)cc2)C(=O)N[C@@H](Cc2cccnc2)C(=O)NCc2ccc(CN)cc2)cc1 [Example 160, N-[(R)-1-[(S)-1-(4-Aminomethyl-benzylcarbamoyl)-2-pyridin-3-yl-ethylcarbamoyl]-2-(4-ethoxy-phenyl)-ethyl]-4-methoxy-benzamide] | 20.4 (≈ 33.5 µM) | 8.00 | < 5.00 | –
14 | CCOc1ccc(C[C@@H](NC(=O)c2cccs2)C(=O)N[C@@H](Cc2cccnc2)C(=O)NCc2ccc(CN)cc2)cc1 [Example 162, Thiophene-2-carboxylic acid [(R)-1-[(S)-1-(4-aminomethyl-benzylcarbamoyl)-2-pyridin-3-yl-ethylcarbamoyl]-2-(4-ethoxy-phenyl)-ethyl]-amide] | 69.7 (≈ 119 µM) | 8.00 | < 5.00 | –
15 | CCOc1ccc(C[C@@H](NC(=O)c2ccc(Cl)cc2)C(=O)N[C@@H](Cc2cccnc2)C(=O)NCc2ccc(CN)cc2)cc1 [Example 173, N-[(R)-1-[(S)-1-(4-Aminomethyl-benzylcarbamoyl)-2-pyridin-3-yl-ethylcarbamoyl]-2-(4-ethoxy-phenyl)-ethyl]-4-chloro-benzamide] | 2.38 (≈ 3.88 µM) | 6.67 | < 5.00 | –
16 | CCOc1ccc(C[C@@H](NC(=O)c2ccno2)C(=O)N[C@@H](Cc2cccnc2)C(=O)NCc2ccc(CN)cc2)cc1 [Example 174, Isoxazole-5-carboxylic acid [(R)-1-[(S)-1-(4-aminomethyl-benzylcarbamoyl)-2-pyridin-3-yl-ethylcarbamoyl]-2-(4-ethoxy-phenyl)-ethyl]-amide] | 233 (≈ 408 µM) | 7.35 | < 5.00 | –
17 | CCOc1ccc(C[C@@H](NC(=O)c2sccc2Cl)C(=O)N[C@@H](Cc2cccnc2)C(=O)NCc2ccc(CN)cc2)cc1 [Example 175, 3-Chloro-thiophene-2-carboxylic acid [(R)-1-[(S)-1-(4-aminomethyl-benzylcarbamoyl)-2-pyridin-3-yl-ethylcarbamoyl]-2-(4-ethoxy-phenyl)-ethyl]-amide] | 23.4 (≈ 37.7 µM) | 8.52 | < 5.00 | –
18 | CCOc1ccc(C[C@@H](NC(=O)c2ccncc2)C(=O)N[C@@H](Cc2csc3ccccc23)C(=O)NCc2ccc(CN)cc2)cc1 [Example 178, N-[(R)-1-[(S)-1-(4-Aminomethyl-benzylcarbamoyl)-2-benzo[b]thiophen-3-yl-ethylcarbamoyl]-2-(4-ethoxy-phenyl)-ethyl]-isonicotinamide] | 1.54 (≈ 2.42 µM) | 7.38 | < 5.00 | –
19 | CCOc1ccc(C[C@@H](NC(=O)c2sccc2NC(C)=O)C(=O)N[C@@H](Cc2ccccc2)C(=O)NCc2ccc(CN)cc2)cc1 [Example 179, 3-Acetylamino-thiophene-2-carboxylic acid-[(R)-1-[(S)-1-(4-aminomethyl-benzylcarbamoyl)-2-phenyl-ethylcarbamoyl]-2-(4-ethoxy-phenyl)-ethyl]-amide] | 17.7 (≈ 27.6 µM) | 7.66 | 5.14 | –
20 | CCOc1ccc(C[C@@H](NC(=O)c2sccc2C)C(=O)N[C@@H](Cc2cccnc2)C(=O)NCc2ccc(CN)cc2)cc1 [Example 181, 3-Methyl-thiophene-2-carboxylic acid [(R)-1-[(S)-1-(4-aminomethyl-benzylcarbamoyl)-2-pyridin-3-yl-ethylcarbamoyl]-2-(4-ethoxy-phenyl)-ethyl]-amide] | 61.6 (≈ 103 µM) | 8.00 | < 5.00 | –
21 | CCOc1ccc(C[C@@H](NC(=O)c2ccccc2)C(=O)N[C@@H](Cc2ccc(F)c(F)c2)C(=O)NCc2ccc(CN)cc2)cc1 [Example 200, N—[(R)-1-[(S)-1-(4-Aminomethyl-benzylcarbamoyl)-2-(3,4-difluoro-phenyl)-ethylcarbamoyl]-2-(4-ethoxy-phenyl)-ethyl]-benzamide] | 0.22 (≈ 0.358 µM) | 7.35 | 5.12 | –
